{"source": "patent US20060052751A1", "about": "“Fast perfusion cell chamber” (priority 2004, published 2006)", "system": "GABA transporter isoform GAT4", "experiment": "GABA concentration jump, two-electrode voltage clamp in Xenopus laevis oocyte in fast perfusion chamber", "format": "cell-based", "conditions": "oocyte expressing GAT4, N=6", "description": "The usefulness of the Xenopus oocyte expression system for a variety of electrogenic membrane proteins has driven us to invent a novel rapid perfusion method which allows fast (≦20 ms) solution changes around intact, voltage-clamped Xenopus laevis oocytes (FIGS. 1-4). The present invention permits rapid solution changes to be made about voltage-clamped Xenopus laevis oocytes, while preserving the integrity of the cellular membrane. Defolliculated oocytes (intact vitelline membrane) and conventional two-electrode voltage clamp are used. For fast perfusion, the oocyte is placed in-line with the flow of buffer. The oocyte is supported primarily by an oocyte support base (6) equipped with oocyte support prongs (12), which prevent cellular movement. The current and voltage electrodes (4, 5) (for electrophysiological measurements) provide some support. Buffer flows from above the oocyte in a vertical direction (driven by gravity), at adjustable rates ranging from 1-50 ml/min. Healthy oocytes withstand maximal flow rates due to the chamber's support mechanisms.\nIn the absence of oocyte in the chamber, the fluid exchange rate at the recording electrodes is ≈3 ms at maximal buffer flow rates (FIG. 5), the fastest solution change rate ever reported for Xenopus laevis oocytes. The exchange rate with oocyte in place is more difficult to determine due to the highly invaginated surface of the cell (i.e., microvilli), but is estimated to be no more than ≈20 ms. The geometry of the oocyte, microvilli in the oocyte plasma membrane, as well as the oocyte vitelline membrane most likely contribute to this slowing effect. […] A number of features of the system have been examined with oocytes expressing the human γ-aminobutyric acid transporter protein and compared with results obtained from traditional methods (FIGS. 6 and 7). This system permits examination of ligand interaction with electrogenic membrane proteins, a proposition which has heretofore been unattainable. The system also allows for rapid determination of kinetic parameters for drugs of interest.\nFIGS. 6A and 6B show a representative γ-aminobutyric acid (GABA) concentration jump in an oocyte expressing the GABA transporter isoform GAT4. The membrane potential (Vm) was held at −50 mV and the GABA concentration was 0.5 mM. […] This rapid transient induced by a concentration jump represents the fastest ever reported with the two-electrode voltage clamp for any membrane protein expressed in the Xenopus laevis oocyte expression system. […] The steady-state current represents steady-state Na^+/Cl^−/GABA cotransport into the cell. Only the steady-state current is observed in conventional two-electrode voltage clamp records (not shown). The rapid transient represents fast GABA-evoked electrogenic transitions. […] Referring to FIG. 6B, if GABA and Na^+ are simultaneously introduced, the rapid transient phase is absent and the evoked current follows a monoexponential behavior (τ=602±98 ms; N=6). […] Because these events are very fast events, these measurements would not have been possible without the present invention. Thus, our perfusion chamber allows the acquisition of novel information from electrogenic membrane transport proteins expressed in oocytes."}
{"compound": "NCCCC(=O)O", "note": "[GABA, γ-aminobutyric acid]", "values": [{"measurement": "time constant (τ) of monoexponential evoked current", "setting": "GABA and Na+ simultaneously introduced, rapid transient phase absent", "result": "602 ± 98", "unit": "ms"}, {"measurement": "time constant of decay of rapid transient phase of GABA-evoked current", "setting": "Vm -50 mV, GABA 0.5 mM", "result": "15 ± 2", "unit": "ms"}, {"measurement": "time constant of mono-exponential decay of GABA-evoked current back to baseline upon rapid removal of GABA", "setting": "Vm -50 mV, GABA 0.5 mM", "result": "4.0 ± 0.6", "unit": "s"}, {"measurement": "time constant of mono-exponential decay of slow transient phase to steady-state", "setting": "Vm -50 mV, GABA 0.5 mM", "result": "1.3 ± 0.1", "unit": "s"}, {"measurement": "time-to-peak of rapid transient phase of GABA-evoked inward current", "setting": "Vm -50 mV, GABA 0.5 mM", "result": "20 ± 5", "unit": "ms"}]}
